Experimental data from US20100152434A1, “Protein Kinase-binding Nucleosides and Associated Methods” (priority 2007, published 2010).
Like-named read-outs stand apart in the source and are kept apart here.

Assays:
[1] = system: NCI-H322M; assay: cells; conditions: Homo sapiens, NCI-H322M, 48 h
[2] = system: NCI-H460; assay: cells; conditions: Homo sapiens, NCI-H460, 48 h
[3] = system: M14
[4] = system: UACC-257
[5] = system: NCI/ADR-RES; conditions: NCI/ADR-RES
[6] = system: NCI-H460
[7] = system: SNB-19; assay: cells; conditions: Homo sapiens, SNB-19, 48 h
[8] = system: SN12C
[9] = system: UACC-62; assay: cells; conditions: Homo sapiens, UACC-62, 48 h
[10] = system: IGROV1; assay: cells; conditions: Homo sapiens, IGROV-1, 48 h
[11] = system: U251; assay: cells; conditions: Homo sapiens, U-251, 48 h
[12] = system: MDA-MB-231/ATCC
[13] = system: HCT-15; assay: cells; conditions: Homo sapiens, HCT-15, 48 h
[14] = system: RXF 393; assay: cells; conditions: Homo sapiens, RXF 393, 48 h
[15] = system: OVCAR-4; assay: cells; conditions: Homo sapiens, OVCAR-4, 48 h
[16] = system: HOP-92; assay: cells; conditions: Homo sapiens, HOP-92, 48 h
[17] = system: HCC-2998; assay: cells; conditions: Homo sapiens, HCC 2998, 48 h
[18] = system: SK-MEL-2; assay: cells; conditions: Homo sapiens, SK-MEL-2, 48 h
[19] = system: SK-OV-3
[20] = system: A549/ATCC
[21] = system: SNB-75
[22] = system: UACC-62
[23] = system: TK-10; assay: cells; conditions: Homo sapiens, TK-10, 48 h
[24] = system: CAKI-1; assay: cells; conditions: Homo sapiens, CAKI-1, 48 h
[25] = system: DU-145; assay: cells; conditions: Homo sapiens, DU-145, 48 h
[26] = system: SF-539
[27] = system: OVCAR-3
[28] = Log10 Concentration −4.0, Molar
[29] = Log10 Concentration −5.0, Molar
[30] = Log10 Concentration −6.0, Molar
[31] = Log10 Concentration −7.0, Molar
[32] = Log10 Concentration −8.0, Molar

`CCOC(=O)C[C@@H]1C(O[Si](C)(C)C(C)(C)C)[C@H](n2cnc3c(NC(=O)Nc4ccccc4)ncnc32)O[C@@H]1CNC(=O)NC` (stereo partly drawn) [Compound 10] was tested, and the GI50 [1] was > 100 µM, the CC50 ([1]; read-out: LC50) was > 100 µM and the GI50 [2] was 5.54 µM. The CC50 ([2]; read-out: LC50) was > 100 µM, the TGI ([3]; 48 h) was 1.16E−5 Molar and the “Percent Growth” value [3, 28] was −56%. The “Percent Growth” value [3, 29] was 4%, the “Percent Growth” value [3, 30] was 81% and the “Percent Growth” value [3, 31] was 82%. The “Percent Growth” value [3, 32] was 90%, the TGI ([4]; 48 h) was >1.00E−4 Molar and the “Percent Growth” value [4, 28] was 9%. For the same compound, the “Percent Growth” value [4, 29] was 34%, the “Percent Growth” value [4, 30] was 99% and the “Percent Growth” value [4, 31] was 102%. The “Percent Growth” value [4, 32] was 102%, the TGI ([5]; 48 h) was >1.00E−4 Molar and the “Percent Growth” value [5, 28] was 59%. The “Percent Growth” value [5, 29] was 80%, the “Percent Growth” value [5, 30] was 104% and the “Percent Growth” value [5, 31] was 107%. The “Percent Growth” value [5, 32] was 105%, the TGI ([6]; 48 h) was 2.50E−5 Molar and the “Percent Growth” value [6, 28] was −49%. The “Percent Growth” value [6, 29] was 32%, the “Percent Growth” value [6, 30] was 101% and the “Percent Growth” value [6, 31] was 102%. For the same compound, the “Percent Growth” value [6, 32] was 102%, the GI50 [7] was 29 µM and the CC50 ([7]; read-out: LC50) was > 100 µM. For the same compound, the TGI ([8]; 48 h) was >1.00E−4 Molar, the “Percent Growth” value [8, 28] was 11% and the “Percent Growth” value [8, 29] was 48%. The “Percent Growth” value [8, 30] was 103%, the “Percent Growth” value [8, 31] was 101% and the “Percent Growth” value [8, 32] was 101%. For the same compound, the GI50 [9] was > 100 µM, the CC50 ([9]; read-out: LC50) was > 100 µM and the GI50 [10] was 3.85 µM. The CC50 ([10]; read-out: LC50) was 79.2 µM, the GI50 [11] was 4.69 µM and the CC50 ([11]; read-out: LC50) was 76 µM. For the same compound, the TGI ([12]; 48 h) was 4.13E−5 Molar, the “Percent Growth” value [12, 28] was −13% and the “Percent Growth” value [12, 29] was 20%. For the same compound, the “Percent Growth” value [12, 30] was 94%, the “Percent Growth” value [12, 31] was 103% and the “Percent Growth” value [12, 32] was 101%. For the same compound, the GI50 [13] was 8.5 µM, the CC50 ([13]; read-out: LC50) was > 100 µM and the GI50 [14] was 2.01 µM. The CC50 ([14]; read-out: LC50) was 19.5 µM, the GI50 [15] was 12.3 µM and the CC50 ([15]; read-out: LC50) was > 100 µM. For the same compound, the GI50 [16] was < 0.01 µM, the CC50 ([16]; read-out: LC50) was 41.2 µM and the GI50 [17] was > 100 µM. The CC50 ([17]; read-out: LC50) was > 100 µM, the GI50 [18] was 5.42 µM and the CC50 ([18]; read-out: LC50) was > 100 µM. The TGI ([19]; 48 h) was >1.00E−4 Molar, the “Percent Growth” value [19, 28] was 16% and the “Percent Growth” value [19, 29] was 66%. The “Percent Growth” value [19, 30] was 90%, the “Percent Growth” value [19, 31] was 96% and the “Percent Growth” value [19, 32] was 96%. For the same compound, the TGI ([20]; 48 h) was 1.92E−5 Molar, the “Percent Growth” value [20, 28] was −58% and the “Percent Growth” value [20, 29] was 23%. For the same compound, the “Percent Growth” value [20, 30] was 94%, the “Percent Growth” value [20, 31] was 103% and the “Percent Growth” value [20, 32] was 102%. For the same compound, the TGI ([21]; 48 h) was >1.00E−4 Molar, the “Percent Growth” value [21, 28] was 22% and the “Percent Growth” value [21, 29] was 32%. The “Percent Growth” value [21, 30] was 85%, the “Percent Growth” value [21, 31] was 90% and the “Percent Growth” value [21, 32] was 92%. For the same compound, the TGI ([22]; 48 h) was >1.00E−4 Molar, the “Percent Growth” value [22, 28] was 60% and the “Percent Growth” value [22, 29] was 82%. The “Percent Growth” value [22, 30] was 97%, the “Percent Growth” value [22, 31] was 102% and the “Percent Growth” value [22, 32] was 100%. For the same compound, the GI50 [23] was 12.4 µM, the CC50 ([23]; read-out: LC50) was > 100 µM and the GI50 [24] was 29.7 µM. For the same compound, the CC50 ([24]; read-out: LC50) was > 100 µM, the GI50 [25] was 4.97 µM and the CC50 ([25]; read-out: LC50) was 78.4 µM. The TGI ([26]; 48 h) was >1.00E−4 Molar, the “Percent Growth” value [26, 28] was 17% and the “Percent Growth” value [26, 29] was 29%. For the same compound, the “Percent Growth” value [26, 30] was 103%, the “Percent Growth” value [26, 31] was 91% and the “Percent Growth” value [26, 32] was 97%. The TGI ([27]; 48 h) was 1.72E−5 Molar, the “Percent Growth” value [27, 28] was −53% and the “Percent Growth” value [27, 29] was 16%. For the same compound, the “Percent Growth” value [27, 30] was 116%, the “Percent Growth” value [27, 31] was 115% and the “Percent Growth” value [27, 32] was 114%.
